From PubChem BioAssay (NCI)
Several values for one entry are separate records, joined by “and”; a condition that tells them apart may be missing. Identical values can stand only once.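 Test compounds were applied to cells in 96-well plates for 48 hours at 5 doses. Here, GI50 denotes the concentration required for 50% inhibition of growth. TGI marks complete inhibition of growth.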

Key:
Experiment in all cases: growth of human tumour cells (NCI), 48 h
HCT-15 colon = system: HCT-15 colon
MDA-MB-435 = system: MDA-MB-435
SF-295 CNS = system: SF-295 CNS
SNB-75 CNS = system: SNB-75 CNS
RXF 393 renal = system: RXF 393 renal
OVCAR-5 ovarian = system: OVCAR-5 ovarian
M14 melanoma = system: M14 melanoma
HOP-92 NSCLC = system: HOP-92 NSCLC
A549 NSCLC = system: A549 NSCLC
SW-620 colon = system: SW-620 colon

FC(F)(F)c1ccc(NCc2nc3ccccc3[nH]2)cc1
GI50 (HCT-15 colon): 32.7 µM | TGI (HCT-15 colon): > 100 µM | GI50 (MDA-MB-435): 22.4 µM | TGI (MDA-MB-435): 74.6 µM | GI50 (SF-295 CNS): 18.7 µM | TGI (SF-295 CNS): 65.8 µM | GI50 (SNB-75 CNS): 23 µM | TGI (SNB-75 CNS): > 100 µM | GI50 (RXF 393 renal): 24.4 µM | TGI (RXF 393 renal): 81.9 µM | GI50 (OVCAR-5 ovarian): 27.8 µM | TGI (OVCAR-5 ovarian): 78.3 µM | GI50 (M14 melanoma): 24.7 µM | TGI (M14 melanoma): > 100 µM | GI50 (HOP-92 NSCLC): 12.9 µM | TGI (HOP-92 NSCLC): 36.8 µM | GI50 (A549 NSCLC): 27.7 µM | TGI (A549 NSCLC): > 100 µM | GI50 (SW-620 colon): 35.7 µM | TGI (SW-620 colon): > 100 µM

COC1=CC2CCN3Cc4cc5c(cc4C(C1O)C23)OCC5 (stereo not given)
GI50 (HCT-15 colon): 1.31 µM | TGI (HCT-15 colon): 8.49 µM | GI50 (MDA-MB-435): 3.44 µM | TGI (MDA-MB-435): 21.3 µM | GI50 (SF-295 CNS): 3.88 µM | TGI (SF-295 CNS): 24.4 µM | GI50 (SNB-75 CNS): 1.24 µM | TGI (SNB-75 CNS): 6.24 µM | GI50 (RXF 393 renal): 2.74 µM | TGI (RXF 393 renal): 16.7 µM | GI50 (OVCAR-5 ovarian): 2.48 µM | TGI (OVCAR-5 ovarian): 22.8 µM | GI50 (M14 melanoma): 3 µM | TGI (M14 melanoma): 19.3 µM | GI50 (HOP-92 NSCLC): 2.97 µM | TGI (HOP-92 NSCLC): > 28 µM | GI50 (A549 NSCLC): 1.26 µM | TGI (A549 NSCLC): 8.19 µM | GI50 (SW-620 colon): 5.21 µM | TGI (SW-620 colon): > 100 µM

COc1cc(/C=C/c2ccccn2)cc(OC)c1OC
TGI (HCT-15 colon): > 10 µM | TGI (MDA-MB-435): > 10 µM | TGI (SF-295 CNS): > 10 µM | TGI (SNB-75 CNS): > 10 µM | TGI (RXF 393 renal): > 10 µM | TGI (OVCAR-5 ovarian): > 10 µM | TGI (M14 melanoma): > 10 µM | TGI (HOP-92 NSCLC): > 10 µM | TGI (A549 NSCLC): > 10 µM | TGI (SW-620 colon): > 10 µM

O=c1[nH]c(SCc2ccccc2[N+](=O)[O-])nc2nc[nH]c12
TGI (HCT-15 colon): > 100 µM | TGI (MDA-MB-435): > 100 µM | TGI (SF-295 CNS): > 100 µM | GI50 (SNB-75 CNS): > 100 µM and 49.5 µM | TGI (SNB-75 CNS): > 100 µM | TGI (RXF 393 renal): > 100 µM | TGI (OVCAR-5 ovarian): > 100 µM | TGI (M14 melanoma): > 100 µM | TGI (HOP-92 NSCLC): > 100 µM | TGI (A549 NSCLC): > 100 µM | TGI (SW-620 colon): > 100 µM

Cc1cc(C#Cc2ccccc2)ccc1-n1c(/C=C/c2cc(O)ccc2O)nc2ccccc2c1=O
GI50 (HCT-15 colon): 1.03 µM | TGI (HCT-15 colon): 2.21 µM | GI50 (MDA-MB-435): 1.67 µM | TGI (MDA-MB-435): 3.53 µM | GI50 (SF-295 CNS): 1.35 µM | TGI (SF-295 CNS): 3.82 µM | GI50 (SNB-75 CNS): 1.3 µM | TGI (SNB-75 CNS): 2.78 µM | GI50 (RXF 393 renal): 1.65 µM | TGI (RXF 393 renal): 3.72 µM | GI50 (OVCAR-5 ovarian): 1.39 µM | TGI (OVCAR-5 ovarian): 2.7 µM | GI50 (M14 melanoma): 1.54 µM | TGI (M14 melanoma): 2.91 µM | GI50 (HOP-92 NSCLC): 1.54 µM | TGI (HOP-92 NSCLC): 4.33 µM | GI50 (A549 NSCLC): 1.28 µM | TGI (A549 NSCLC): 2.68 µM | GI50 (SW-620 colon): 1.71 µM | TGI (SW-620 colon): 3.51 µM

Fc1ccc(C2C3CCOc4c(ccc5ccccc45)C3=NN2c2ccccc2)cc1 (stereo not given)
GI50 (HCT-15 colon): 9.34 µM | TGI (HCT-15 colon): > 100 µM | GI50 (MDA-MB-435): > 100 µM | TGI (MDA-MB-435): > 100 µM | GI50 (SF-295 CNS): 20.7 µM | TGI (SF-295 CNS): > 100 µM | GI50 (SNB-75 CNS): > 78.7 µM | TGI (SNB-75 CNS): > 100 µM | GI50 (RXF 393 renal): > 63.6 µM | TGI (RXF 393 renal): > 100 µM | GI50 (OVCAR-5 ovarian): > 100 µM | TGI (OVCAR-5 ovarian): > 100 µM | GI50 (M14 melanoma): > 100 µM | TGI (M14 melanoma): > 100 µM | GI50 (HOP-92 NSCLC): > 84.6 µM | TGI (HOP-92 NSCLC): > 100 µM | GI50 (A549 NSCLC): 48.9 µM | TGI (A549 NSCLC): > 100 µM | GI50 (SW-620 colon): > 100 µM | TGI (SW-620 colon): > 100 µM

OCc1ccc(N(Cc2ccc(F)cc2)CC2CCC2)cc1Cl
GI50 (HCT-15 colon): 11.7 µM | TGI (HCT-15 colon): 25 µM | GI50 (MDA-MB-435): 15.4 µM | TGI (MDA-MB-435): 30 µM | GI50 (SF-295 CNS): 4.06 µM | TGI (SF-295 CNS): 17.5 µM | GI50 (SNB-75 CNS): 12.4 µM | TGI (SNB-75 CNS): 25.3 µM | GI50 (RXF 393 renal): 6.07 µM | TGI (RXF 393 renal): 18 µM | GI50 (OVCAR-5 ovarian): 1.13 µM | TGI (OVCAR-5 ovarian): 4.25 µM | GI50 (M14 melanoma): 15.2 µM | TGI (M14 melanoma): 31.2 µM | GI50 (HOP-92 NSCLC): 0.839 µM | TGI (HOP-92 NSCLC): 12.8 µM | GI50 (A549 NSCLC): 8.49 µM | TGI (A549 NSCLC): 22.4 µM | GI50 (SW-620 colon): 7.02 µM | TGI (SW-620 colon): 21 µM

CC/C(=N/N=C(N)N)c1ccc(NC(=O)Nc2ccc(/C(CC)=N/N=C(N)N)cc2)cc1
GI50 (HCT-15 colon): 11.9 µM | TGI (HCT-15 colon): 33.2 µM | GI50 (MDA-MB-435): 3.72 µM | TGI (MDA-MB-435): 16.2 µM | GI50 (SF-295 CNS): 3.99 µM | TGI (SF-295 CNS): 19 µM | GI50 (SNB-75 CNS): 13.6 µM | TGI (SNB-75 CNS): 42.1 µM | GI50 (RXF 393 renal): 7.81 µM | TGI (RXF 393 renal): 33.2 µM | GI50 (OVCAR-5 ovarian): 18.8 µM | TGI (OVCAR-5 ovarian): 44.6 µM | GI50 (M14 melanoma): 10.4 µM | TGI (M14 melanoma): 37.4 µM | GI50 (HOP-92 NSCLC): 5.67 µM | TGI (HOP-92 NSCLC): 35.2 µM | GI50 (A549 NSCLC): 5.1 µM | TGI (A549 NSCLC): 22.4 µM | GI50 (SW-620 colon): 8.29 µM | TGI (SW-620 colon): 55.6 µM

Nc1ccc(C(=O)Nc2ccccc2N)cc1
TGI (HCT-15 colon): > 100 µM | TGI (MDA-MB-435): > 100 µM | TGI (SF-295 CNS): > 100 µM | TGI (SNB-75 CNS): > 93.1 µM | TGI (RXF 393 renal): > 100 µM | TGI (OVCAR-5 ovarian): > 82.7 µM | TGI (M14 melanoma): > 100 µM | TGI (HOP-92 NSCLC): > 100 µM | TGI (A549 NSCLC): > 100 µM | TGI (SW-620 colon): > 100 µM

COC(=O)c1ccc2c(C(=Nc3ccc(N(C)C(=O)CN4CCN(C)CC4)cc3)c3ccccc3)c(O)[nH]c2c1
GI50 (HCT-15 colon): 2.22 µM and 5.45 µM | TGI (HCT-15 colon): > 100 µM | GI50 (MDA-MB-435): 1.63 µM and 1.6 µM | TGI (MDA-MB-435): 3.09 µM and 3.05 µM | GI50 (SF-295 CNS): 4.46 µM and 10.8 µM | TGI (SF-295 CNS): 13.1 µM and > 56.9 µM | GI50 (SNB-75 CNS): 0.385 µM and 0.32 µM | TGI (SNB-75 CNS): 9.71 µM and 7.71 µM | GI50 (RXF 393 renal): 0.683 µM and 0.572 µM | TGI (RXF 393 renal): 2.47 µM and 2.9 µM | GI50 (OVCAR-5 ovarian): 1.73 µM and 6.75 µM | GI50 (M14 melanoma): 1.75 µM and 1.98 µM | TGI (M14 melanoma): 3.56 µM and 3.98 µM | GI50 (HOP-92 NSCLC): 0.69 µM and 1.56 µM | TGI (HOP-92 NSCLC): 12.7 µM and 15 µM | GI50 (A549 NSCLC): 2.74 µM and 2.79 µM | TGI (A549 NSCLC): > 100 µM | GI50 (SW-620 colon): 1.87 µM | TGI (SW-620 colon): 4.14 µM

CN1CCN(c2ccc(Nc3ncc4cc5n(c4n3)C3(CCCCC3)CNC5=O)nc2)CC1
GI50 (HCT-15 colon): 2.16 µM | TGI (HCT-15 colon): 13.2 µM | GI50 (MDA-MB-435): 2.02 µM | TGI (MDA-MB-435): 24 µM | GI50 (SF-295 CNS): 3.09 µM | TGI (SF-295 CNS): 18.4 µM | GI50 (SNB-75 CNS): 1.41 µM | TGI (SNB-75 CNS): 4.54 µM | GI50 (RXF 393 renal): 1.32 µM | TGI (RXF 393 renal): 3.71 µM | GI50 (OVCAR-5 ovarian): 0.491 µM | TGI (OVCAR-5 ovarian): 12.2 µM | GI50 (M14 melanoma): 1.76 µM | TGI (M14 melanoma): 11.7 µM | GI50 (HOP-92 NSCLC): 1.27 µM | TGI (HOP-92 NSCLC): 18.2 µM | GI50 (A549 NSCLC): 1.47 µM | TGI (A549 NSCLC): 16.2 µM | GI50 (SW-620 colon): 0.166 µM | TGI (SW-620 colon): 11.8 µM
